biological target: T1, human PAD4 (Homo sapiens, UniProt Q9UM07); experiment: In vitro PAD4 BAEE biochemical assay; conditions: BAEE substrate 3 mM, 5 nM PAD4, 2 mM calcium chloride; geometric mean of multiple experiments
T1 construct: human PAD4 (NM_012387), A2-P663, was PCR amplified; His-SUMO (N, cleaved yes); made in house; host or cells: E. coli BL21(DE3)
In short: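 Fluorescence read-out (ex 405/em 535 nm) of isoindole formed from ammonia, o-phthalaldehyde and DTT after EDTA stop. Reaction: 5 nM PAD4, 2 mM CaCl2, 3 mM BAEE, 2 h, 25 °C, after 30 min enzyme–compound preincubation. Normalised to BB-Cl-Amidine (50 µM) and DMSO controls.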

T1 sequence (Q9UM07 2-663): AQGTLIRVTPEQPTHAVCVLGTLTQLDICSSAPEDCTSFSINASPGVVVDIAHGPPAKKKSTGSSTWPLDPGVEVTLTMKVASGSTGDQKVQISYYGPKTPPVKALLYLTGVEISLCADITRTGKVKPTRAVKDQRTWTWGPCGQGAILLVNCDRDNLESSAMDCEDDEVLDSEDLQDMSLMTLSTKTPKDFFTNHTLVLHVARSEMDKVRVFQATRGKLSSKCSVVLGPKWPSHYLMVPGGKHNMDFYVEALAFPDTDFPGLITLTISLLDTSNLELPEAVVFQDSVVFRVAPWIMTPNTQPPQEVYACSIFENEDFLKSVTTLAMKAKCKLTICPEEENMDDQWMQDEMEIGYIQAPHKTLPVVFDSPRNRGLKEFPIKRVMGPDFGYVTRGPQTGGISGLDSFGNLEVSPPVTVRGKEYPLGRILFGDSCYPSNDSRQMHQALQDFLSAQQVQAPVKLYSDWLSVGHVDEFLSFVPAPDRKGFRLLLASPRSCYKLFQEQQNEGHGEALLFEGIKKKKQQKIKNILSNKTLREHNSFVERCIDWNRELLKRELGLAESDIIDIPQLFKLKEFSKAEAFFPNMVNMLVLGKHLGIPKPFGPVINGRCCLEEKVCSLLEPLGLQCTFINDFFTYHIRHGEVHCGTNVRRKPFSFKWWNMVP

| Compound | IC50 |
| --- | --- |
| COc1cc(C(=O)N2CCC[C@@H](N)C2)cc2nc(-c3cc4ccc5cc4n3CCCCCCC(C)(C)C(=O)Nc3ccccc3-5)n(C)c12 [Example 54, 18-[5-[(3~{R})-3-aminopiperidine-1-carbonyl]-7-methoxy-1-methyl-benzimidazol-2-yl]-10,10-dimethyl-8,17-diazatetracyclo[15.5.2.0^{2,7).0^{20,24}] tetracosa-1(23),2,4,6,18,20(24),21-heptaen-9-one] | 1380 nM |
| COc1cc(C(=O)N2CCC[C@@H](N)C2)cc2nc(-c3cc4ccc5cc4n3CCCC3CCN(CC3)C(=O)c3ccccc3-5)n(C)c12 [Example 55, 17-[5-[(3~{R})-3-aminopiperidine-1-carbonyl]-7-methoxy-1-methyl-benzimidazol-2-yl]-9,16-diazapentacyclo[14.5.2.2^{9,12).0^{2,7}.0^ {19,23}]pentacosa-1(22),2,4,6,17,19(23),20-heptaen-8-one] | 4680 nM |
| COc1cc(C(=O)N2CCC[C@@H](N)C2)cc2nc(-c3cc4ccc5nc4n3CCCCCCNC(=O)c3c-5ccnc3F)n(C)c12 [Example 56, 17-[5-[(3~{R})-3-aminopiperidine-1-carbonyl]-7-methoxy-1-methyl-benzimidazol-2-yl]-6-fluoro-5,9,16,22-tetrazatetracyclo[14.5.2.0^{2,7}.0^{19,23}] tricosa-1(22),2,4,6,17,19(23),20-heptaen-8-one] | 193 nM |
| COc1cc(C(=O)N2CCC[C@@H](N)C2)cc2nc(-c3cc4ccc5nc4n3CCCCCCNC(=O)c3cccc(C)c3-5)n(C)c12 [Example 57, 17-[5-[(3~{R})-3-aminopiperidine-1-carbonyl]-7-methoxy-1-methyl-benzimidazol-2-yl]-3-methyl-9,16,22-triazatetracyclo[14.5.2.0^{2,7}.0^{19,23}] tricosa-1(22),2,4,6,17,19(23),20-heptaen-8-one] | 213 nM |
| COc1cc(C(=O)N2CCC[C@@H](N)C2)cc2nc(-c3cc4ccc5nc4n3CCCCCC(C)(C)C(=O)N[C@@H]5C)n(C)c12 [Example 58, (10~{R})-16-[5-[(3~{R})-3-aminopiperidine-1-carbonyl]-7-methoxy-1-methyl-benzimidazol-2-yl]-7,7,10-trimethyl-1,9,18-triazatricyclo[9.5.2.0^{14,17}]octadeca-11(18),12,14(17),15-tetraen-8-one] | 77 nM |
| COc1cc(C(=O)N[C@H]2CNC[C@@H](O)C2)cc2nc(-c3cc4ccc5nc4n3CCCCCCC(C)(C)C(=O)N[C@@H]5C)n(C)c12 [Example 59, ~{N}-[(3~{R},5~{S})-5-hydroxy-3-piperidyl]-7-methoxy-1-methyl-2-[(11~{R})-8,8,11-trimethyl-9-oxo-1,10,19-triazatricyclo[10.5.2.0^{15,18}]nonadeca-12(19),13,15(18),16-tetraen-17-yl]benzimidazole-5-carboxamide] | 161 nM |
| COc1cc(C(=O)N2CC[C@@H](OC)[C@@H](N)C2)cc2nc(-c3cc4ccc5nc4n3CCCCCCC(C)(C)C(=O)N[C@@H]5C)n(C)c12 [Example 60, (11~{R})-17-[5-[(3~{S},4~{R})-3-amino-4-methoxy-piperidine-1-carbonyl]-7-methoxy-1-methyl-benzimidazol-2-yl]-8,8,11-trimethyl-1,10,19-triazatricyclo[10.5.2.0^{15,18}]nonadeca-12(19),13,15(18),16-tetraen-9-one] | 118 nM |
| COc1cc(C(=O)N2CC[C@@H](OC)[C@@H](N)C2)cc2nc(-c3cc4ccc5nc4n3CCCCCC(C)(C)C(=O)N[C@@H]5C)n(C)c12 [Example 61, (10~{R})-16-[5-[(3~{S},4~{R})-3-amino-4-methoxy-piperidine-1-carbonyl]-7-methoxy-1-methyl-benzimidazol-2-yl]-7,7,10-trimethyl-1,9,18-triazatricyclo[9.5.2.0^{14,17}]octadeca-11(18),12,14(17),15-tetraen-8-one] | 231 nM |

Source: patent US11976083B2, “Inhibitors of peptidylarginine deiminases” (Gilead Sciences, Inc., priority 2020, dated 2024)
